Data published in patent publication US6342219B1 (Board of Regents, The University of Texas System, priority 1999, dated 2002).

Legend:
[1] = test system: denatured VEGF121 and VEGF165; assay: Western blot analysis; type: binding, human; details: reducing and non-reducing conditions
Procedure: The nitrocellulose membrane was blocked using Sea-Block PP82-41 (East Coast Biologics, Berwick, Me.), and probed with primary antibodies using a mini-blotter apparatus (Immunetics, Cambridge, Mass.). The membranes were developed after incubation with the appropriate peroxidase-conjugated secondary antibody by ECL enhanced chemiluminescence.
Western blot analyses of anti-VEGF antibodies were conducted by separating VEGF165 in the presence of 5% FCS using SDS-PAGE on a 12% gel and analyzing by a standard western blotting protocol using ECL detection. The primary antibodies were incubated with the nitrocellulose membrane using a multi-lane mini-blotter apparatus.

NCI-H358 NSCLC = assay: In vivo tumor growth inhibition, newly implanted NCI-H358; parameters: species or system nu/nu mice
Procedure: FIG. 3A and FIG. 3B. […] FIG. 3A: 1×10^7 NCI-H358 NSCLC cells were injected subcutaneously into nu/nu mice on day 0. FIG. 3B: 5×10^6 A673 rhabdomyosarcoma cells were injected subcutaneously into nu/nu mice on day 0. Mice were injected i.p. with the indicated IgG on day 1 and 2 times/week thereafter. […] Tumors were measured 2-3 times per week. Mean and standard error is shown for the duration of the study in FIG. 3A, while data for the last day of the study (day 26) is shown in FIG. 3B.
Nu/nu mice were injected subcutaneously with either 1×10^7 NCI-H358 NSCLC cells or 5×10^6 A673 rhabdomyosarcoma cells on day 0. […] The tumors were then measured twice per wk for a period of approximately six wk for the NCI-H358 bearing mice and four wk for the A673 bearing mice. Tumor volume was calculated according to the formula: volume=L×W×H, where L=length, W=width, H=height.

NCI-H358 NSCLC tumors = assay: Treatment of established NCI-H358 xenografts (FIG. 4); type: in vivo, nu/nu mice; details: 50-100 μg i.p. every 3-5 days, approximately 10 weeks
Procedure: FIG. 4. […] Mean tumor volume along with the SEM over 116 days is shown.
Male nu/nu mice bearing subcutaneous NCI-H358 tumors or HT1080 fibrosarcoma 200-400 mm^3 in size were injected i.p. with test or control antibodies. The NCI-H358 bearing mice were treated with 100 μg of antibodies per injection three times a week during the first week and twice a week during the second and third week. The mice were then switched to 50 μg per injection every five days. The HT1080 bearing mice were treated with 100 μg of the indicated antibody or saline every other day throughout the duration of the study. In both studies, mice were sacrificed when their tumors reached 2500 mm^3 in size or earlier if tumors began to ulcerate.
Doses were 50-100 μg every 3-5 days. […] In addition to measuring mean tumor volume (FIG. 4), photographs of the mice from each treatment group were also taken to show the differences in tumor size and appearance at the end of the study.

A673 rhabdomyosarcoma = assay: Treatment of established A673 tumors; parameters: species or system mice; details: mouse, in vivo

Chain of denatured VEGF121 and VEGF165 (P15692 207-320 limits assumed): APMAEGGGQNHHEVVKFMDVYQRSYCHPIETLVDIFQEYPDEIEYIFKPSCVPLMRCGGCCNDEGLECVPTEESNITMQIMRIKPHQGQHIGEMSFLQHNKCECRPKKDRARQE

2C3: anti-VEGF monoclonal antibody, IgG2a, k, produced by hybridoma ATCC PTA 1595; blocks VEGF binding to VEGFR2 but not VEGFR1 [Clone 2C3]
Reactivity with denatured VEGF on western blots [1]: react | Tumor growth retardation in the NCI-H358 tumor model at the lower dose (NCI-H358 NSCLC; 10 μg dose): less marked | Final tumor volume, NCI-H358 (NCI-H358 NSCLC; 100 μg i.p. 2 times per wk from day 1, controls approximately 1000 mm^3): approximately 150 mm^3 | Mean tumor volume at the end of the study, of the initial mean tumor volume (NCI-H358 NSCLC tumors): 30% | Effect on growth of established A673 tumors (A673 rhabdomyosarcoma): significantly slowed the growth
